Measured values: patent US20060235020A1, “Process for preparing salts of 4-[[5-[(cyclopropylamino)carbonyl]-2-methylphenyl]amino]-5-methyl-N-propylpyrrolo[2,1-f][1,2,4]triazine-6-carboxamide and novel stable forms produced therein” (priority 2005, published 2006)
Read-outs that look alike come from different tables or passages of the source.

Key:
[1] = Procedure: Moisture sorption isotherms were collected in a VTI SGA-100 Symmetric Vapor Analyzer using approximately 10 mg of sample. The sample was dried at 60° C. until the loss rate of 0.0005 wt %/min was obtained for 10 minutes. The sample was tested at 25° C. (for free base 1 and N-1 HCl salt) or 30° C. (for N-4 HCl salt) and 3 or 4, 5, 15, 25, 35, 45, 50, 65, 75, 85, and 95% RH. Equilibration at each RH was reached when the rate of 0.0003 wt %/min for 35 minutes was achieved or a maximum of 600 minutes.
[2] = slurries in THF, acetonitrile, acetone and DMF/acetone at room temperature
Source text: Form N-4 of the hydrochloric acid salt of the free base I crystallizes from organic solvents, preferably DMF/acetone.

[3] = Stability of the crystals in the solid state; format: physicochemical; settings: isolated solid

Row | Structure (SMILES) | hygroscopicity / water uptake (moisture-sorption isotherm) ([1]; about 25 to about 75% RH at 30° C.) | hygroscopicity / water uptake (moisture-sorption isotherm) ([1]; about 25 to about 75% RH at 30° C., listed as Form N-4 crystals of free base I) | relative stability of the crystal form in slurries ([2]; listed as Form N-4) | hygroscopicity / water uptake (moisture-sorption isotherm) ([1]; about 25 to about 75% RH at 25° C.) | hygroscopicity / water uptake (moisture-sorption isotherm) ([1]; about 25 to about 75% RH at 25° C., listed as Form N-1 crystals of the hydrochloric acid salt of free base I) | stability in the solid state form [3] | relative stability of the crystal form in slurries ([2]; listed as Form N-1)
1 | CCCNC(=O)c1cn2ncnc(Nc3cc(C(=O)NC4CC4)ccc3C)c2c1C.Cl [Form N-4 salt, hydrochloric acid salt of 4-[[5-[(cyclopropylamino)carbonyl]-2-methylphenyl]amino]-5-methyl-N-propylpyrrolo[2,1-f][1,2,4]triazine-6-carboxamide] | non-hygroscopic | negligible water uptake | stable form at room temperature | – | – | – | –
2 | CCCNC(=O)c1cn2ncnc(Nc3cc(C(=O)NC4CC4)ccc3C)c2c1C.Cl [Form N-1 hydrochloride salt, hydrochloric acid salt of 4-[[5-[(cyclopropylamino)carbonyl]-2-methylphenyl]amino]-5-methyl-N-propylpyrrolo[2,1-f][1,2,4]triazine-6-carboxamide] | – | – | – | non-hygroscopic | negligible water uptake | remain stable in the solid state form | convert to Form N-4
